Data taken from ChEMBL document CHEMBL5257035, “Nucleoside Derived Antibiotics to Fight Microbial Drug Resistance: New Utilities for an Established Class of Drugs?” (J Med Chem, 2016).
Converted amounts (≈) assume the structure as drawn. Values belong to the compound of their own block, whether it stands above or below them.

How the values were obtained:
[1] = Cytotoxicity against human HepG2 cells assessed as reduction in cell viability incubated for 72 hrs by MTT assay; type: toxicity, cell-based
Candida albicans = test: Inhibition of Candida albicans chitin synthase at 1 uM relative to control
[2] = target: T1, Phospho-N-acetylmuramoyl-pentapeptide-transferase (Escherichia coli K-12, UniProt P0A6W3); test: Inhibition of MraY in Escherichia coli K12
T1 sequence (P0A6W3 whole entry): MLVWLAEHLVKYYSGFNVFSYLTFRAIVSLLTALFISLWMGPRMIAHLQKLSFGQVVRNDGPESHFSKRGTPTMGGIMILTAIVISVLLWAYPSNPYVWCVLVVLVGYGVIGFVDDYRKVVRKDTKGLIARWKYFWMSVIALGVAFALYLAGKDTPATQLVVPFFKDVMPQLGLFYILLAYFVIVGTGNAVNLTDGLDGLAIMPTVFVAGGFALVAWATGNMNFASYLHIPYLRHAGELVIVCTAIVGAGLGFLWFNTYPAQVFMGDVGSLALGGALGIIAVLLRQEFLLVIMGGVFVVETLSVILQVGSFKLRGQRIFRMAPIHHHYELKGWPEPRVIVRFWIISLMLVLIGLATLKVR

[3] = target: T2, Phospho-N-acetylmuramoyl-pentapeptide-transferase (Escherichia coli, UniProt E2QF15); test: Inhibition of MraY in Escherichia coli
T2 sequence (E2QF15 whole entry): T1 sequence (P0A6W3 whole entry)

[4] = Inhibition of Bacterial MraY; design: species or system Bacteria
Bacillus subtilis = test: Antibacterial activity against Bacillus subtilis ATCC 6633 assessed as bacterial growth inhibition by agar diffusion method; type: functional
[5] = Toxicity in rat; conditions: in vivo

SMILES: CC(C)[C@H](NC(=O)N[C@H](C(=O)N[C@H](CCCCCCCc1ccc(-c2ccccc2)cc1)C(=O)NCCCNC(C(=O)O)[C@H](O[C@@H]1O[C@H](CN)[C@@H](O)[C@H]1O)[C@H]1O[C@@H](n2ccc(=O)[nH]c2=O)[C@H](O)[C@@H]1O)[C@@H]1CCNC(=N)N1)C(=O)O (stereo partly specified)
IC50 at 72 h [1]: > 100 µg/mL

inhibition (Candida albicans): 10%
SMILES: O=C(NCCCNC(=O)[C@@H](O)[C@H](O)C(=O)NC[C@H]1O[C@@H](n2ccc(=O)[nH]c2=O)[C@H](O)[C@@H]1O)[C@@H](O)[C@H](O)C(=O)NC[C@H]1O[C@@H](n2ccc(=O)[nH]c2=O)[C@H](O)[C@@H]1O

IC50 [2]: 10 µM | IC50 [3]: 25 µM | IC50 [4]: 50 µM
SMILES: NC[C@H]1O[C@@H](OC[C@H]2O[C@@H](n3ccc(=O)[nH]c3=O)[C@H](O)[C@@H]2O)[C@H](O)[C@@H]1O

IC50 [2]: 10 µM
SMILES: NC[C@H]1O[C@@H](OC[C@H]2O[C@@H](n3ccc(=O)[nH]c3=O)C[C@@H]2O)[C@H](O)[C@@H]1O

IC50 [4]: 5 µM
SMILES: NC[C@H]1O[C@@H](O[C@@H](CO)[C@H]2O[C@@H](n3ccc(=O)[nH]c3=O)[C@H](O)[C@@H]2O)[C@H](O)[C@@H]1O

SMILES: CCCCCCCCCCc1cn(C[C@H](O[C@@H]2O[C@H](CN)[C@@H](O)[C@H]2O)[C@H]2O[C@@H](n3ccc(=O)[nH]c3=O)[C@H](O)[C@@H]2O)nn1
IC50 [3]: 8 µM

IC50 [4]: 6.25 µM
SMILES: CO[C@H]1[C@H](O[C@@H](C2C(=O)N(Cc3ccccc3)C(=O)N2CCCNC(=O)[C@@H](NC(=O)[C@@H](NC(=O)N[C@H](C(=O)O)C(C)C)[C@@H]2CCNC(=N)N2)[C@@H](O)C(C)C)[C@H]2O[C@@H](n3ccc(=O)[nH]c3=O)[C@H](O)[C@@H]2O)O[C@H](CN)[C@H]1O (stereo partly specified)

IC50 [2]: 10 µM
SMILES: NC[C@H]1O[C@@H](OC[C@@H]2C[C@@H](O)[C@H](n3ccc(=O)[nH]c3=O)O2)[C@H](O)[C@@H]1O

SMILES: CCC(C)CCCCCCCCCC/C=C/C(=O)N[C@H]1[C@H](O[C@@H]2O[C@@H](CO)[C@H](O)[C@H](O)[C@H]2NC(C)=O)O[C@H](C[C@@H](C)[C@H]2O[C@@H](n3ccc(=O)[nH]c3=O)[C@H](O)[C@@H]2O)[C@H](O)[C@@H]1O (stereo partly specified)
MIC (Bacillus subtilis): 0.1 µg/mL (≈ 0.117 µM) | LD50 [5]: 0.137 mg/kg

SMILES: CC(=O)N[C@H]1[C@H](O[C@@H]2O[C@H](C[C@@H](C)[C@H]3O[C@@H](n4ccc(=O)[nH]c4=O)[C@H](O)[C@@H]3O)[C@H](O)[C@H](O)[C@H]2NC(=O)CCCCCCCCCCCCCCC(C)C)O[C@@H](CO)[C@H](O)[C@@H]1O
MIC (Bacillus subtilis): 0.1 µg/mL (≈ 0.115 µM) | LD50 [5]: 0.137 mg/kg

SMILES: CCCCCCCCCCCCCCC[C@H](NC(=O)[C@@H](NC(=O)N[C@H](C(=O)O)C(C)C)[C@@H]1CCNC(=N)N1)C(=O)NCCCNC(C(=O)O)[C@H](O[C@@H]1O[C@H](CN)[C@@H](O)[C@H]1O)[C@H]1O[C@@H](n2ccc(=O)[nH]c2=O)[C@H](O)[C@@H]1O (stereo partly specified)
IC50 at 72 h [1]: > 100 µg/mL

SMILES: CO[C@H]1[C@@H](O)[C@H](n2ccc(=O)[nH]c2=O)O[C@@H]1[C@@H](O[C@@H]1OC(C(=O)N[C@H]2CSC[C@@H](C)NC2=O)=C[C@@H](O)[C@H]1O)C(N)=O
IC50 [3]: 0.058 µM

SMILES: CC(=O)N[C@H]1[C@H](O[C@@H]2O[C@H](C[C@@H](C)[C@H]3O[C@@H](n4ccc(=O)[nH]c4=O)[C@H](O)[C@@H]3O)[C@H](O)[C@H](O)[C@H]2NC(=O)/C=C/CCCCCCCCCCCCC(C)C)O[C@@H](CO)[C@H](O)[C@@H]1O
MIC (Bacillus subtilis): 0.1 µg/mL (≈ 0.115 µM) | LD50 [5]: 0.137 mg/kg

IC50 [3]: 25 µM
SMILES: CNC[C@H]1O[C@@H](OC[C@H]2O[C@@H](n3ccc(=O)[nH]c3=O)[C@H](O)[C@@H]2O)[C@H](O)[C@@H]1O

SMILES: CC(=O)N[C@H]1[C@H](O[C@@H]2O[C@H](C[C@@H](C)[C@H]3O[C@@H](n4ccc(=O)[nH]c4=O)[C@H](O)[C@@H]3O)[C@H](O)[C@H](O)[C@H]2NC(=O)CC(O)CCCCCCCCCCCCC(C)C)O[C@@H](CO)[C@H](O)[C@@H]1O (stereo partly specified)
MIC (Bacillus subtilis): 0.1 µg/mL (≈ 0.112 µM) | LD50 [5]: 0.137 mg/kg

SMILES: CC(=O)N[C@H]1[C@H](O[C@@H]2O[C@H](C[C@@H](C)[C@H]3O[C@@H](n4ccc(=O)[nH]c4=O)[C@H](O)[C@@H]3O)[C@H](O)[C@H](O)[C@H]2NC(=O)/C=C/CCCCCCCCCCC(C)C)O[C@@H](CO)[C@H](O)[C@@H]1O
MIC (Bacillus subtilis): 0.1 µg/mL (≈ 0.119 µM) | LD50 [5]: 0.137 mg/kg

IC50 [4]: 6.25 µM
SMILES: CCCCCCCCCCCCN1C(=O)C([C@H](O[C@@H]2O[C@H](CN)[C@@H](O)[C@H]2OC)[C@H]2O[C@@H](n3ccc(=O)[nH]c3=O)[C@H](O)[C@@H]2O)N(CCCNC(=O)[C@@H](NC(=O)[C@@H](NC(=O)N[C@H](C(=O)O)C(C)C)[C@@H]2CCNC(=N)N2)[C@@H](O)C(C)C)C1=O (stereo partly specified)

SMILES: CC(C)[C@H](NC(=O)N[C@H](C(=O)N[C@H](C(=O)NCCCN[C@@H](CC[C@H]1O[C@@H](n2ccc(=O)[nH]c2=O)[C@H](O)[C@@H]1O)C(=O)O)[C@@H](O)C(C)C)[C@@H]1CCNC(=N)N1)C(=O)O
IC50 [3]: 1.7 µM | IC50 [4]: 150 µM
